A word on the Kd: it is the equilibrium constant for the complex coming apart. Read a high Kd as weaker binding.

In one data set the test system is murine splenocytes. Nature of the data set: MTT cytotoxicity in murine splenocytes. Conditions: up to 10 μM; FIG. 8a. Type of data set: cell-based, mouse. Here is the method: Example 3: Isolation of Splenocytes from Mice and Cell Culture
Seven to eight week-old female Balb/c mice were purchased from Orient Bio, Inc. (Sungnam, Korea). Experimental animals were allowed to maintain at a non-pathogenic environment and adapted before the experiment. Experimental mice were sacrificed by dislocation of spine, and the spleens collected therefrom were removed into petri dishes filled with RPMI containing 10% FBS, 100 units/mL of penicillin, and 100 μg/mL of streptomycin. The spleens were dispersed through a nylon mesh to prepare a single cell suspension, and RBC was depleted by using RBC lysis buffer (Sigma, St. Louis, Mo.). Splenocytes were washed and cultured in RPMI complete medium.
Example 9: Analysis of Cytotoxicity
Cytotoxicity was analyzed in a 96-well plate using 5 mg/mL of MTT (3-(4,5-dimethylthiasol-2-yl)-2,5-diphenyltetrazolium bromide). The optical density of cells was measured at 550 nm using a microplate reader (Bio-Rad, Richmond, Calif., USA). Cell viability rate was expressed in percentage of the absorbance of treated cells relative to the absorbance of untreated cells.

Another data set has as its target T1, CypB (Homo sapiens, UniProt P23284).
T1 construct: GST (N); made in house; host or cells: E. coli (pGEX-KG)
Nature of the data set: SPR binding of WJCPA-126 to CypB. Conditions: SPR-based kinetic analysis.

The target in another data set is T2, CypA (Homo sapiens, UniProt P62937).
T2 construct: GST (N, cleaved yes); made in house; host or cells: E. coli (pGEX-KG)
T2 sequence (P62937 whole entry): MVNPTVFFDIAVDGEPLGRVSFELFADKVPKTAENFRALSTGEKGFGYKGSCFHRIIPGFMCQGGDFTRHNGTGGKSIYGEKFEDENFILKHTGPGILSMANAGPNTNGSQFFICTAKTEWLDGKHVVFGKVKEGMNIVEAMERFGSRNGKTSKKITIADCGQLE
The data set is described as follows: SPR binding of WJCPA-126 or CsA to CypA. Here is the method: Example 4: Molecular Docking Analysis by Surface Plasmon Resonance (SPR)
CypA protein was fixed on the sensor chip surface via free amine coupling by injecting a mixture of 0.1 M 1-ethyl-3-(3-dimethylaminopropyl) carboimidehydrochloride and 0.05 M N-hydroxysuccinimide thereon, and the extra activated carboxylic acid was inhibited using 1M ethanolamine (pH 8.5). The second reference cell was treated similarly while excluding the target protein. All working peptide dilutions were prepared in running buffer (PBS containing 0.2% DMSO) and injected at a rate of 30 μL/min for 3 minutes (association time) and dissociation phase was performed for 3 minutes. Nonspecific background was substracted from each sensogram using SPR_V4017 data collection and alignment program (Reichert, Depew, N.Y.). […] Optimum kinetic parameters were obtained by global fitting analysis using Scrubber2 (Biologic Software, Australia).

The next data set addresses T3, CypA and NS5A or NS5B (Homo sapiens, UniProt P62937).
T3 construct: 1 mg/mL of HCV Con1b replicon protein lysate; endogenous in cells; host or cells: Huh7 cells carrying the HCV Con1b subgenomic replicon
The data set is described as follows: Co-immunoprecipitation and mammalian two-hybrid analysis of CypA with NS5A or NS5B. The settings on record: FIG. 13a, 13b. Type of data set: cell-based. Here is the method: Example 17: Co-Immunoprecipitation Assay
For co-immunoprecipitation, 4 μg of specific antibody and 1 mg/mL of HCV Con1b replicon protein lysate to a final volume of 500 μL were rotated at 4° C. for 4 hours. Then, 20 μL of the washed protein A/G PLUS agarose (Santa Cruz, Calif., USA) was added thereto and incubated at 4° C. overnight. Subsequently, the sample was washed 3 times with Triton-wash-buffer, resuspended, and denatured in 5×SDS-PAGE buffer at 95° C. for 5 minutes. The resultant was centrifuges at 19,000 g for 1 minute at 4° C. and subjected to western blot analysis.
Example 18: Mammalian Two-Hybrid System
The interaction between intracellular CypA-NS5A and CypA-NS5B was confirmed by the two-hybrid screening technology using CheckMate™ mammalian two-hybrid system (Promega, Madison, Wis., USA) according to the manufacturer's instructions. In brief, pACT- and pBIND-based plasmids were co-transfected (TurboFect, FermentasC) to Huh7 cells along with a pG5luc reporter construct, and incubated at 37° C. After 72 hours, the cell lysate was analyzed regarding the luciferase activity.

In the next data set the test system is HCV replicon cells. Nature of the data set: Western blot of NS5A and NS5B in HCV replicon cells (total lysate, membrane fraction). The format is cell-based, hepatitis C virus. Here is the method:
Example 10: Preparation of a Membrane Fraction
Cells grown to about 80% confluence in a culture dish with a diameter of 10 cm were scraped using PBS. The cells were pelleted by centrifugation at 220 g for 10 minutes. The pellet was resuspended in 1 mL hypotonic buffer (10 mM Tris-HCL pH 7.5, 10 mM KCL, 1.5 mM MgCl2, 0.5 mM PMSF (phenylmethylsulfonyl fluoride), and 2 μg/mL leupeptin), and incubated at 4° C. for 10 minutes. The suspension was homogenized using 75 strokes of a glass dounce homogenizer using a tight-fitting pestle (Sigma, St. Louis, Mo., USA). Nuclei and undestroyed cells were removed by centrifugation at 220 g for 10 minutes at 4° C. The cell membrane in the thus-obtained supernatant was directly centrifuged at 68,000 g for 1 hour at 4° C. using an ultracentrifuge tube in a micro-ultracentrifuge (Hitachi, Japan). Upon centrifugation, the coarse replication complex fraction was recovered from the pellet and used for western blot analysis.
Example 14: Western Blot Analysis
Cell extracts were separated by SDS-PAGE and then transferred to a nitrocellulose membrane. After blocking, the membrane was incubated with indicated primary antibody and subsequently incubated with secondary antibody. The samples were detected with enhanced chemiluminescence reagents (Santa Cruz, Calif., USA).

A further data set concerns IL-2 production. Nature of the data set: IL-2 concentration by ELISA in splenocytes. Conditions: up to 10 μM; FIG. 9c. The format is cell-based, mouse. Here is the method:
Upon incubation, the cultures from three different wells were collected and IL-2 concentration was analyzed by ELISA according to the protocol by Enzo life Science (Plymouth Meeting, Pa., USA). IL-2 concentration was calculated based on the IL-2 standard solution.

For another data set, the system named is IL-8. The data set is described as follows: IL-8 mRNA and IL-8 ELISA in HCV replicon cell. The format is cell-based, human. The settings on record: 2 μM. Here is the method:
Example 11: Determination of IL-8 and INF-α Concentrations in Cell Culture Media by ELISA
Upon incubation, the cell culture media were collected and the IL-8 and IFN-α concentrations were analyzed according to the protocol of eBioscience (San Diego, Calif., USA) by ELISA.
Example 19: Real-Time Quantitative Reverse Transcriptase PCR Analysis
Real-time quantitative reverse transcriptase PCR (qRT-PCR) was performed using SYBR Green PCR Master Mix (Invitrogen/Applied Biosystem, Carlsbad, Calif., USA) and ABI Prism 7300 Real-time PCR System (Applied Biosystems, Carlsbad, Calif., USA) according to the manufacturer's instructions. Calculations were performed based on […] method using the following equation: R (ratio)=2-[ΔCT (sample)-ΔCT (control group)]. The data were expressed as fold change of the treated group relative to the control group and standardized relative to the glyceraldehyde 3-phosphate dehydrogenase (GAPDH) level.
In general terms: ELISA stands for enzyme-linked immunosorbent assay.

T3 sequence (P62937 whole entry): as above
T1 sequence (P23284 34-216, species assumed): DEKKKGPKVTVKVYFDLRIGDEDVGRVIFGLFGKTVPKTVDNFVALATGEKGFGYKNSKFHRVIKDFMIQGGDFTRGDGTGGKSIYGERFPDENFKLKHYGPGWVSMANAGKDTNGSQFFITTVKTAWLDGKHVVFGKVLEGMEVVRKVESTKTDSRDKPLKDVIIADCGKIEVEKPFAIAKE

For `COc1cc(C(C(=O)NC2CCCCC2)N(C(=O)Cc2c[nH]c3ccccc23)c2ccc(C(C)C)cc2)cc(OC)c1OC` (centres unmarked) [WJCPA-126, N-cyclohexyl-2-[(2-1H-indol-3-yl-acetyl)-(4-isopropyl-phenyl)-amino]-2-(3,4,5-trimethoxy-phenyl)-acetamide], the “cytotoxicity in mouse splenocytes” value in the data set with murine splenocytes is “no cytotoxicity”. The Kd on CypB is 2100 nM; at CypA (SPR-based kinetic analysis, CypA), 520 nM. Besides, the “Koff (dissociation rate)” value at CypA (SPR) is 6.0×10^−4 S^−1. For the same compound, at CypA (SPR), the Kon is listed as 8.2×10^3 M^−1 S^−1. Moreover, the “interactions between CypA and NS5A or NS5B” value at CypA and NS5A or NS5B is “destroys the interactions between CypA and NS5A or NS5B”. Further, in the data set with HCV replicon cells (0.5 μM to 4 μM, FIG. 10a), the “levels of NS5A and NS5B proteins” value is “decrease in the levels of NS5A and NS5B proteins in a dose-dependent manner”. In addition, the “NS5A and NS5B protein levels in total lysate and membrane fraction” value in the data set with HCV replicon cells (2 μM, HCV Con1b replicon cells, FIG. 10b) is “decrease the protein levels of NS5A and NS5B in both the total lysate and the membrane fraction”. Further, the “ionomycin-induced IL-2 production” value in the data set on IL-2 production is reported as “did not show any inhibitory activity”. Further, the “mRNA level of IL-8” value with IL-8 (FIG. 15b) is “significant reduction of mRNA level of IL-8 in a time-dependent manner”. Also, the “IL-8 production (ELISA)” value with IL-8 (FIG. 15c) is “significantly reduces the expression of IL-8 production”.

These data come from patent publication US10064843B2, “Bis-amide derivative and use thereof” (University-Industry Cooperation Group of Kyung Hee …, priority 2013, dated 2018).
